Holding throughout (type): biochemical
One assay addresses recombinant hMAO-B (Homo sapiens (Human), UniProt P27338). Nature of the assay: MAO-B activity assay (MAO-Glo assay kit). The note with it: 4 μM substrate, 30 mins pre-incubation. The procedure:
(§1) The biological activities of the compounds of the present application can be assessed with methods and assays known in the art. For example, the potency of the compounds of the present application can be evaluated with an SSAO Activity Assay. Briefly, compounds of the present application can be applied to recombinant hSSAO, hMAO-A, and hMAO-B isoforms and the amine oxidase activity of the enzymes are measured after the addition and subsequent oxidation of the luminogenic substrate (e.g., with the MAO-Glo assay kit from Promega). The IC50 can be calculated, for example, by fitting the dose response curve using a 4-parameter non-linear regression routine.
(§2) Amine oxidase activity of recombinant hSSAO, hMAO-A, and hMAO-B isoforms are measured using the MAO-Glo assay kit (Promega, V1402). Ten nL test compounds (with DMSO as vehicle, 0.1% v/v for hSSAO, hMAO-A and hMAO-B) were added into assay plates by Echo, and pre-incubated with 5 μL of enzyme for 30 mins at room temperature before the addition of 5 μL of luminogenic substrate. The substrate concentration is 40 μM for human recombinant SSAO, 40 μM for human recombinant MAO-A, and 4 μM for human recombinant MAO-B. The hSSAO and hMAO-A assays were conducted in the MAO-A reaction buffer in the kit, and the MAO-B assay was conducted in the MAO-B reaction buffer. Oxidation of the substrate was conducted for 1 hr, before the addition of detecting reagent according the manufacture's protocol. The IC50 value of the tested compounds was calculated by fitting the dose response curve using a 4-parameter non-linear regression routine.

In a further assay the target is recombinant hMAO-A (Homo sapiens (Human), UniProt P21397). Nature of the assay: MAO-A activity assay (MAO-Glo assay kit). The note with it: 40 μM substrate, 30 mins pre-incubation. The procedure:
as §1, §2

The target in the next assay is recombinant hSSAO (Homo sapiens (Human), UniProt Q16853). Nature of the assay: SSAO Activity Assay (MAO-Glo assay kit). The note with it: 40 μM substrate, 30 mins pre-incubation. A digest of the protocol: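 Recombinant human enzymes were pre-incubated 30 min at room temperature with compound (0.1% DMSO), then given luminogenic substrate: 40 μM for SSAO and MAO-A (MAO-A buffer), 4 μM for MAO-B (MAO-B buffer).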
Chain of recombinant hSSAO (Q16853 whole entry): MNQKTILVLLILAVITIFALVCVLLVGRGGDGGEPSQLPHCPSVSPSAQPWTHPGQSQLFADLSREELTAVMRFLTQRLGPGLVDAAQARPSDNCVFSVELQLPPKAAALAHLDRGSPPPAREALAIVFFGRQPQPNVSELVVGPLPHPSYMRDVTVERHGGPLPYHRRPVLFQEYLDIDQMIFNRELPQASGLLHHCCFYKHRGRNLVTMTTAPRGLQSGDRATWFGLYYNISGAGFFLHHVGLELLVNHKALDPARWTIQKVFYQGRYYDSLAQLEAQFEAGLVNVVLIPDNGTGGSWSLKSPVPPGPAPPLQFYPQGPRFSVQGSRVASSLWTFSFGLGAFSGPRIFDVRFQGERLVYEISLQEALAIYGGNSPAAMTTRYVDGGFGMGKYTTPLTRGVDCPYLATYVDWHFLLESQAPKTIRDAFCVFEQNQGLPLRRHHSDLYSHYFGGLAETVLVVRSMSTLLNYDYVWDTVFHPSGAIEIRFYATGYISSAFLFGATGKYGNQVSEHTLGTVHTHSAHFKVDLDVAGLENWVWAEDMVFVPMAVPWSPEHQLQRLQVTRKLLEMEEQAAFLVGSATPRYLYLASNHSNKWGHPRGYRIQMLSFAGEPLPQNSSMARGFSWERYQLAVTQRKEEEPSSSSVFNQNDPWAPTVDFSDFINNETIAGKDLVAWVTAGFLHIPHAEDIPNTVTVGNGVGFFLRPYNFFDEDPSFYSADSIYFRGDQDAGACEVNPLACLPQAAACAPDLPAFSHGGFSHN

Chain of recombinant hMAO-B (P27338 whole entry, canonical isoform): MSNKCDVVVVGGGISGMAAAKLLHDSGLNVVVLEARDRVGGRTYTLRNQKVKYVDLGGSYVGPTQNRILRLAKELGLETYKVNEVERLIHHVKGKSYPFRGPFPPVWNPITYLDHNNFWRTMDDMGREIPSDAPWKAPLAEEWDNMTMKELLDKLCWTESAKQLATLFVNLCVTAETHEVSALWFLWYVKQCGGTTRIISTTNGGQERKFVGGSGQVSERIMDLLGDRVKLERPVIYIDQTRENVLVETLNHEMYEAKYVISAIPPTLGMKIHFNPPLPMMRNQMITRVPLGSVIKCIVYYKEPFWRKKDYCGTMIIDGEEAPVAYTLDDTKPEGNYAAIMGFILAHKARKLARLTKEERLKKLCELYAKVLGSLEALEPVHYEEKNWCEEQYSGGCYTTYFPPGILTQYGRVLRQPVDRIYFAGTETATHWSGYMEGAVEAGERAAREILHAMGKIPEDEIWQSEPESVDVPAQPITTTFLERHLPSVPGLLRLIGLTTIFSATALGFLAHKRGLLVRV
Chain of recombinant hMAO-A (P21397 whole entry): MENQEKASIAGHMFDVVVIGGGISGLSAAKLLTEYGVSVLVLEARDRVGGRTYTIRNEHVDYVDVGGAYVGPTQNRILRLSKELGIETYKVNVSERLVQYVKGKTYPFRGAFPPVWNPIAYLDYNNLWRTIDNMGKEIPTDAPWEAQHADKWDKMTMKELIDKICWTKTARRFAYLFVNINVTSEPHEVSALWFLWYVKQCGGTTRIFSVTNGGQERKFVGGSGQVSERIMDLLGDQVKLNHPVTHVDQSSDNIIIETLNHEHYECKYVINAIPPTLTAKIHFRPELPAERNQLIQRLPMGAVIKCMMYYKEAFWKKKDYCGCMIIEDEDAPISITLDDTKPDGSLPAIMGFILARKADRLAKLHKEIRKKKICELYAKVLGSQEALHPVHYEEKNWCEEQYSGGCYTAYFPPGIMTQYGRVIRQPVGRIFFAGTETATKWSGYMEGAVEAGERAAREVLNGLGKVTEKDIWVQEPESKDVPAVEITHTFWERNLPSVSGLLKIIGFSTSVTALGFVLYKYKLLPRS

The term IC50 denotes the concentration at which inhibition is half-maximal. For `CC1(C)CCC(=O)N1CS(=O)(=O)c1ccc(OC/C(=C/F)CN)cc1` [Compound 123, (E)-1-(((4-((2-(aminomethyl)-3-fluoroallyl)oxy)phenyl)sulfonyl)methyl)-5,5-dimethylpyrrolidin-2-one], the IC50 on recombinant hMAO-B was greater than 30 µM; at recombinant hMAO-A it was greater than 30 µM; on recombinant hSSAO, 20 to 100 nM.
For the molecule `NC/C(=C\F)COc1ccc(S(=O)(=O)CC23CCC(C(=O)N4CC(F)(F)C4)(CC2)CC3)cc1` [Compound 72], the IC50 is greater than 30 µM on recombinant hMAO-B, greater than 30 µM at recombinant hMAO-A and less than 20 nM on recombinant hSSAO.
`NC/C(=C\F)COc1ccc(S(=O)(=O)CC2CCN(C(=O)C3CCC3)CC2)cc1` [Compound 50, (E)-(4-(((4-((2-(aminomethyl)-3-fluoroallyl)oxy)phenyl)sulfonyl)methyl)piperidin-1-yl)(cyclobutyl)methanone]: the values for the IC50 on recombinant hMAO-B, on recombinant hMAO-A and on recombinant hSSAO were greater than 30 µM, greater than 30 µM and 20 to 100 nM, respectively.
Turning to `CC1(CS(=O)(=O)c2ccc(OC/C(=C/F)CN)cc2)CCN(C(=O)C(C)(C)C)CC1` [Compound 54, (E)-1-(4-(((4-((2-(aminomethyl)-3-fluoroallyl)oxy)phenyl)sulfonyl)methyl)-4-methylpiperidin-1-yl)-2,2-dimethylpropan-1-one], the IC50 on recombinant hMAO-B was greater than 30 µM; at recombinant hMAO-A it was greater than 30 µM; on recombinant hSSAO, 20 to 100 nM.
With `NC/C(=C\F)COc1ccc(S(=O)(=O)CN2CCOCC2=O)c(F)c1` [Compound 131, (E)-4-(((4-((2-(aminomethyl)-3-fluoroallyl)oxy)-2-fluorophenyl)sulfonyl)methyl) morpholin-3-one], the values for the IC50 on recombinant hMAO-B, at recombinant hMAO-A and on recombinant hSSAO were greater than 30 µM, greater than 30 µM and 20 to 100 nM, respectively.
Take `CC(C)C(=O)NC12CCC(CS(=O)(=O)c3ccc(OC/C(=C/F)CN)cc3)(CC1)CC2` [Compound 80, (E)-N-(4-(((4-((2-(aminomethyl)-3-fluoroallyl)oxy)phenyl)sulfonyl)methyl)bicyclo[2.2.2]octan-1-yl)isobutyramide]: the IC50 was 10 to 30 µM at recombinant hMAO-B, greater than 30 µM at recombinant hMAO-A and less than 20 nM on recombinant hSSAO.
`NC/C(=C\F)COc1ccc(S(=O)(=O)CN2CCOCC2=O)cc1` [Compound 130, (E)-4-(((4-((2-(aminomethyl)-3-fluoroallyl)oxy)phenyl)sulfonyl)methyl)morpholin-3-one]: the IC50 on recombinant hMAO-B was greater than 30 µM; on recombinant hMAO-A, greater than 30 µM; at recombinant hSSAO it was 20 to 100 nM.
On to `NC/C(=C\F)COc1ccc(S(=O)(=O)CN2Cc3ccccc3C2=O)cc1` [Compound 118, (E)-2-(((4-((2-(aminomethyl)-3-fluoroallyl)oxy)phenyl)sulfonyl)methyl)isoindolin-1-one], for which the IC50 at recombinant hMAO-B is less than 10 µM; at recombinant hMAO-A, less than 10 µM; at recombinant hSSAO, 20 to 100 nM.
Turning to `NC/C(=C\F)COc1ccc(S(=O)(=O)CC23CCC(C(=O)N4CCC4)(CC2)CC3)cc1` [Compound 71], the IC50 at recombinant hMAO-B is 10 to 30 µM; at recombinant hMAO-A it was greater than 30 µM; at recombinant hSSAO, less than 20 nM.
For `NC/C(=C\F)COc1ccc(S(=O)(=O)CC23CCC(NC(=O)C4CCC4)(CC2)CC3)cc1` [Compound 92, (E)-N-(4-(((4-((2-(aminomethyl)-3-fluoroallyl)oxy)phenyl)sulfonyl)methyl)bicyclo[2.2.2]octan-1-yl)cyclobutanecarboxamide], the half-maximal inhibitory concentration (IC50) at recombinant hMAO-B was 10 to 30 µM; at recombinant hMAO-A it was greater than 30 µM; on recombinant hSSAO, less than 20 nM.
Turning to `CC(C)(C)C(=O)NC12CCC(CS(=O)(=O)c3ccc(OC/C(=C\F)CN)cc3)(CC1)CC2` [Compound 142, (Z)-N-(4-(((4-((2-(aminomethyl)-3-fluoroallyl)oxy)phenyl)sulfonyl)methyl)bicyclo[2.2.2]octan-1-yl)pivalamide], the IC50 on recombinant hMAO-B is greater than 30 µM; on recombinant hMAO-A, greater than 30 µM; on recombinant hSSAO it was less than 20 nM.
Consider `CC(C)NC(=O)C1CCC(CS(=O)(=O)c2ccc(OC/C(=C/F)CN)cc2)CC1` (stereo not drawn) [Compound 144, (E)-4-(((4-((2-(aminomethyl)-3-fluoroallyl)oxy)phenyl)sulfonyl)methyl)-N-isopropylcyclohexane-1-carboxamide], for which the IC50 at recombinant hMAO-B was less than 10 µM; at recombinant hMAO-A it was greater than 30 µM; at recombinant hSSAO, 20 to 100 nM.
With `NC/C(=C\F)COc1ccc(S(=O)(=O)CC2CCN(C(=O)CC3CC3)CC2)cc1` [Compound 48, (E)-1-(4-(((4-((2-(aminomethyl)-3-fluoroallyl)oxy)phenyl)sulfonyl)methyl)piperidin-1-yl)-2-cyclopropylethan-1-one], the values for the concentration for half-maximal inhibition (IC50) at recombinant hMAO-B, on recombinant hMAO-A and at recombinant hSSAO were greater than 30 µM, greater than 30 µM and 20 to 100 nM, respectively.
Consider `NC/C(=C\F)COc1ccc(S(=O)(=O)Cc2cccc(C(=O)N3CCCC3)c2)cc1` [Compound 47, (E)-(3-(((4-((2-(aminomethyl)-3-fluoroallyl)oxy)phenyl)sulfonyl)methyl)phenyl)(pyrrolidin-1-yl)methanone], for which the IC50 is greater than 30 µM on recombinant hMAO-B, greater than 30 µM on recombinant hMAO-A and 100 to 500 nM at recombinant hSSAO.
Turning to `NC/C(=C\F)COc1ccc(S(=O)(=O)CC2(CN3CCOCC3)CC2)cc1` [Compound 116, (E)-3-fluoro-2-((4-(((1-(morpholinomethyl)cyclopropyl)methyl)sulfonyl)phenoxy)methyl) prop-2-en-1-amine], the IC50 at recombinant hMAO-B was greater than 30 µM; on recombinant hMAO-A, greater than 30 µM; on recombinant hSSAO it was 20 to 100 nM.
Take `NC/C(=C\F)COc1ccc(S(=O)(=O)CC23CCC(C(=O)N4CCCC4)(CC2)CC3)cc1` [Compound 61, (E)-(4-(((4-((2-(aminomethyl)-3-fluoroallyl)oxy)phenyl)sulfonyl)methyl)bicyclo[2.2.2]octan-1-yl)(pyrrolidin-1-yl)methanone]: the IC50 on recombinant hMAO-B was 10 to 30 µM; on recombinant hMAO-A, greater than 30 µM; at recombinant hSSAO, less than 20 nM.
Turning to `CC1(NC(=O)C23CCC(CS(=O)(=O)c4ccc(OC/C(=C/F)CN)cc4)(CC2)CC3)CC1` [Compound 67, (E)-4-(((4-((2-(aminomethyl)-3-fluoroallyl)oxy)phenyl)sulfonyl)methyl)-N-(1-methylcyclopropyl)bicyclo[2.2.2] octane-1-carboxamide], the IC50 on recombinant hMAO-B was greater than 30 µM; on recombinant hMAO-A, greater than 30 µM; at recombinant hSSAO, less than 20 nM.
As to `CC1(C)CCN(CS(=O)(=O)c2ccc(OC/C(=C/F)CN)cc2)C1=O` [Compound 125, (E)-1-(((4-((2-(aminomethyl)-3-fluoroallyl)oxy)phenyl)sulfonyl)methyl)-3,3-dimethylpyrrolidin-2-one], the values for the IC50 on recombinant hMAO-B, at recombinant hMAO-A and on recombinant hSSAO were less than 10 µM, greater than 30 µM and 20 to 100 nM, respectively.
Consider `NC/C(=C\F)COc1ccc(S(=O)(=O)CC23CCC(C(=O)NC4CC4)(CC2)CC3)cc1` [Compound 75, (E)-4-(((4-((2-(aminomethyl)-3-fluoroallyl)oxy)phenyl)sulfonyl)methyl)-N-cyclopropylbicyclo[2.2.2]octane-1-carboxamide], for which the IC50 at recombinant hMAO-B is 10 to 30 µM; at recombinant hMAO-A it was greater than 30 µM; on recombinant hSSAO, less than 20 nM.
For `NC/C(=C\F)COc1ccc(S(=O)(=O)CC23CCC(NS(=O)(=O)C4CC4)(CC2)CC3)cc1` [Compound 81, (E)-N-(4-(((4-((2-(aminomethyl)-3-fluoroallyl)oxy)phenyl)sulfonyl)methyl)bicyclo[2.2.2]octan-1-yl)cyclopropanesulfonamide], in that order: greater than 30 µM, greater than 30 µM and less than 20 nM.

Values taken from US11472769B2, “SSAO inhibitors and use thereof” (Eccogene (Shanghai) Co., Ltd., priority 2019, dated 2022).
